≈ marks a conversion by molar mass, not a printed value. Read-outs that look alike come from different tables or passages of the source.
Key:
[1] = test system: HL-60, HL-60/vinc, LoVo, LoVo/dx; test: Antiproliferative assays, all four cancer cell lines (range given); type: cell-based; details: Homo sapiens, read-out: IC50 (range over the cancer cell lines)
Text: Four human cancer cell lines and one normal cell line were used to evaluate anticancer activity of SAL and its N-benzyl amides: human acute promyelocytic leukemia (HL-60) and its vincristine resistant subline (HL-60/vinc), human colon adenocarcinoma cell lines sensitive (LoVo) and resistant to doxorubicin (LoVo/dx) as well as also normal murine embryonic fibroblast cell line (BALB/3T3). The BALB/3T3 cell line was purchased from the American Type Culture Collection (ATCC Rockville, MD, USA), HL-60 cell line from European Type Culture Collection by courtesy of Professor Spik and Dr Mazurier (Laboratory of Biological Chemistry USTL, Lille, France) and HL-60/vinc, LoVo and LoVo/dx by courtesy of Prof. E. Borowski (Technical University of Gdańsk, Gdańsk, Poland). All the cell lines are maintained in the Institute of Immunology and Experimental Therapy (IIET), Wrocław, Poland.
Human leukemia cells were cultured in ISCOVE medium (IIET, Wroclaw, Polond) containing 10% fetal bovine serum and 2 mM L-glutamine (Sigma Aldrich) and 1 µg/100 mL […] for HL-60/vinc (Sigma Aldrich). Human colon adenocarcinoma cell lines were cultured in mixture of OptiMEM and RPMI 1640 (1:1) medium (IIET) supplemented with 5% fetal bovine serum (Thermo Fisher Scientific, Waltham, MA, USA), 2 mM L-glutamine, 1 mM sodium pyruvate (Sigma Aldrich) and 10 µg/100 mL doxorubicin for LoVo/dx (Sigma Aldrich). Murine embryonic fibroblast cells were cultured in Dulbecco medium (Gibco, Darmstadt, Germany) supplemented with 10% fetal bovine serum (Thermo Fisher Scientific) and 2 mM L-glutamine (Sigma Aldrich). All culture media contained antibiotics: 100 U/mL penicillin (Sigma Aldrich) and 100 µg/mL streptomycin (Polfa-Tarchomin, City, Poland). All cell lines were cultured during entire experiment in humid atmosphere at 37 °C and 5% CO2.
Twenty four hours before adding the tested compounds all cell lines were seeded in 96-well plates (Sarstedt, Nümbrecht, Germany) in appropriate media with 10^4 cells per well. All cell lines were exposed to each tested agent at four different concentrations from the range 100 to 0.1 µg/mL for 72 h. The cells were also exposed to the reference drugs: cisplatin (Accord, London, UK) and doxorubicin hydrochloride (Fluka, St. Louis, MO, USA). Additionally, all cell lines were exposed to DMSO (the solvent used for tested compounds, Sigma Aldrich) at the concentrations corresponding to those in the tested agent dilutions. For adherent cells sulphorodamine B assay was performed and MTT assay for leukemia cells.
After 72 h of incubation with tested compounds the cells were fixed in situ by gently adding of 50 µL per well of cold 50% trichloroacetic acid TCA (Avantor Performance Materials, City, Poland) and were incubated at 4 °C for 1 h. Then the wells were washed four times with water and air-dried. Next, 50 µL of 0.2% solution of sulphorodamine B (Sigma Aldrich) in 1% acetic acid (Avantor Performance Materials) were added to each well and plates were incubated at room temperature for 0.5 h. After incubation time, unbound dye was removed by washing plates four times with 1% acetic acid, whereas the stain bound to cells was solubilized with 150 µL of 10 mM Tris base (Sigma Aldrich). Absorbance of each solution was read at Synergy H4 photometer (BioTek Instruments, Winooski, VT, USA) at 540 nm wavelength.
Proliferation inhibition of leukemia cells by tested compounds was measured by means of MTT assay. […]

MRSA 586/12 = test: MIC microdilution, hospital MRSA; type: cell-based; details: Staphylococcus aureus
HL-60/vinc = test: Antiproliferative MTT assay, HL-60/vinc; type: cell-based, human; details: for IC50: Homo sapiens, HL60/vinc, 72 h, read-out: IC50 HL-60/vinc; for IR HL-60/vinc: IR = IC50 HL-60/vinc / IC50 HL-60; for SI HL-60/vinc: SI = IC50 BALB/3T3 / IC50 HL-60/vinc
Procedure, shortened: (§1)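 Leukemia cells seeded at 10^4 per well and exposed 24 h later to four concentrations (100–0.1 µg/mL) for 72 h; HL-60/vinc cultured with doxorubicin. MTT added 4 h, formazan lysed 24 h, absorbance 570 nm; IC50 from triplicates, ≥3 independent experiments.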

MRSA 462/11 = test: MIC microdilution, hospital MRSA; type: cell-based; details: Staphylococcus aureus
HL-60 = test: Antiproliferative MTT assay, HL-60; type: cell-based, human; details: for IC50: Homo sapiens, read-out: IC50 HL-60; for SI HL-60: SI = IC50 BALB/3T3 / IC50 HL-60
Procedure, shortened: as §1

[2] = test system: breast cancer stem cells (CSCs); parameters: method as in PMID 19682730; details: versus Taxol; cited from earlier work
S. aureus ATCC 29213 = test: MIC microdilution; type: cell-based; details: Staphylococcus aureus
[3] = test system: M. tuberculosis isoniazid-sensitive strain (spec. 192); test: Tuberculostatic activity, test-tube dilution; type: cell-based; details: Mycobacterium tuberculosis, read-out: MIC M. tuberculosis Isoniazid-Sensitive Strain
MRSE 488/11 = test: MIC microdilution, hospital MRSE; type: cell-based; details: Staphylococcus epidermidis
[4] = test system: standard strains of Gram-positive bacteria; test: MIC microdilution, standard Gram-positive strains overall (range given); type: cell-based; details: standard S. aureus and S. epidermidis strains
MRSA and MRSE = test: MIC microdilution, MRSA and MRSE overall (range given); type: cell-based; details: hospital MRSA and MRSE strains
MRSA = test: MIC microdilution, MRSA strains overall (range given); type: cell-based, Staphylococcus aureus; details: hospital MRSA strains
[5] = hospital MRSA strain 586/12, read-out: MIC
[6] = hospital MRSA strain 462/11, read-out: MIC
[7] = ATCC29213, S. aureus ATCC 29213, 18 h, 35 °C, read-out: MIC
[8] = hospital MRSE strain 488/11, read-out: MIC

CC[C@@H](C(=O)[C@@H](C)[C@@H](O)[C@H](C)[C@@H]1O[C@@H]([C@@H](CC)C(=O)O)CC[C@@H]1C)[C@H]1O[C@]2(C=C[C@@H](O)[C@]3(CC[C@@](C)([C@H]4CC[C@](O)(CC)[C@H](C)O4)O3)O2)[C@H](C)C[C@@H]1C [SAL, Salinomycin]
IC50 [1]: 330 to 2330 nM
MIC (MRSA 586/12; MRSA): 16 µg/mL (≈ 21.3 µM)
IC50 (HL-60/vinc): 2330 ± 120 nM
IR HL-60/vinc (HL-60/vinc): 7.06
SI HL-60/vinc (HL-60/vinc): 5.59
MIC (MRSA 462/11; MRSA): 16 µg/mL (≈ 21.3 µM)
IC50 (HL-60; HL-60, 72 h): 330 ± 120 nM
SI HL-60 (HL-60): 39.45
fold more effective than Taxol [2]: ~100 fold
MIC (S. aureus ATCC 29213; ATCC29213, 18 h): 4 µg/mL (≈ 5.33 µM)
MIC [3]: 25 µg/mL (≈ 33.3 µM)
MIC (MRSE 488/11; MRSE): 16 µg/mL (≈ 21.3 µM)

CC[C@H](C(=O)NCc1ccc([N+](=O)[O-])cc1)C1CC[C@H](C)C([C@@H](C)[C@H](O)[C@H](C)C(=O)[C@H](CC)C2O[C@]3(C=C[C@@H](O)C4(CC[C@@](C)(C5CC[C@](O)(CC)[C@H](C)O5)O4)O3)[C@H](C)C[C@@H]2C)O1 (some centres unmarked) [NO2-p]
MIC (MRSA 586/12; [5]): 256 µg/mL (≈ 289 µM)
MIC (range over standard strains of Gram-positive bacteria) [4]: 128 µg/mL
MIC (range over MRSA and MRSE) (MRSA and MRSE): 128 to 256 µg/mL
MIC (MRSA 462/11; [6]): 128 µg/mL (≈ 145 µM)
MIC (S. aureus ATCC 29213; [7]): 128 µg/mL (≈ 145 µM)
MIC [3]: 50 µg/mL (≈ 56.5 µM)
MIC (MRSE 488/11; [8]): 256 µg/mL (≈ 289 µM)

CC[C@H](C(=O)NCc1ccc(F)cc1)C1CC[C@H](C)C([C@@H](C)[C@H](O)[C@H](C)C(=O)[C@H](CC)C2O[C@]3(C=C[C@@H](O)C4(CC[C@@](C)(C5CC[C@](O)(CC)[C@H](C)O5)O4)O3)[C@H](C)C[C@@H]2C)O1 (some centres unmarked) [F-p]
MIC (MRSA 586/12; [5]): 64 µg/mL (≈ 74.6 µM)
MIC (range over standard strains of Gram-positive bacteria) [4]: 16 to 32 µg/mL
MIC (range over MRSA strains) (MRSA): 16 to 64 µg/mL
MIC (range over MRSA and MRSE) (MRSA and MRSE): 16 to 128 µg/mL
IC50 (HL-60/vinc): 11800 ± 2560 nM
IR HL-60/vinc (HL-60/vinc): 3.28
SI HL-60/vinc (HL-60/vinc): 0.73
MIC (MRSA 462/11; [6]): 32 µg/mL (≈ 37.3 µM)
IC50 (HL-60; HL-60, 72 h, MTT, mean ± SD, NA: not active in concentrations used (up to 100 µg/mL)): 3600 ± 690 nM
SI HL-60 (HL-60): 2.40
MIC (S. aureus ATCC 29213; [7]): 32 µg/mL (≈ 37.3 µM)
MIC [3]: 50 µg/mL (≈ 58.3 µM)
MIC (MRSE 488/11; [8]): 128 µg/mL (≈ 149 µM)

— publication PMC6271077, “Synthesis, Anticancer and Antibacterial Activity of Salinomycin N-Benzyl Amides” (Molecules, 2014)
